Results taken from article PMC9052077 (Computational and Structural Biotechnology Journal, 2022).
Entries after “also recorded” stand apart in the source; their conditions may differ. Read-outs that look alike come from different tables or passages of the source.

Tested on: HK-2 cells
Assay: cells
Assay type: cell-based, human
Settings: for IC50 value for HK-2 cells: 24 h
[1] = Homo sapiens, HK-2, 24 h, HK-2 cells, 24 h exposure, SRB assay, Table 1
[2] = Homo sapiens, HK-2, read-out: Activity IC50 (μM), HK-2 cells, Table 4
[3] = Homo sapiens, HK-2, read-out: Activity pIC50, HK-2 cells (converted), Table 4
[4] = Homo sapiens, HK-2, read-out: Bioactivity (μM), HK-2 cells, Table 3

Row | SMILES | IC50 value for HK-2 cells (HK-2 cells, SRB assay) | IC50 (HK-2 cells, 24 h exposure, SRB assay, Table 1) [µM] | Activity pIC50 (HK-2 cells, Table 4) | Actual value (pIC50) (HK-2 cells, converted from IC50 by eq 2, Table 3) | IC50 (read-out: Activity IC50, HK-2 cells, Table 4) [µM] | IC50 (read-out: Bioactivity, HK-2 cells, Table 3) [µM] | IC50 [1] [µM] | IC50 [2] [µM] | IC50 [3] [µM] | IC50 [4] [µM]
1 | N.N.[Cl][Pt][Cl] [Compound 12, Cisplatin] | micromolar of tens digit | 25.4 | 4.59 | 4.59 | 25.4 | 25.4 | – | – | – | –
2 | C/C=C(/C)C(=O)O[C@H]1C(C)=C2[C@H]([C@@H]1OC(=O)CCCCCCC)[C@@](C)(OC(C)=O)C[C@H](OC(=O)CCC)[C@@]1(O)[C@H]2OC(=O)[C@@]1(C)O [Compound 1, Thapsigargin] | – | – | – | – | – | – | 0.18 | 0.18 | 0.182 | 0.18
3 | C=CC[C@@H]1/C=C(\C)C[C@H](C)C[C@H](OC)[C@H]2O[C@@](O)(C(=O)C(=O)N3CCCC[C@H]3C(=O)O[C@H](/C(C)=C/[C@@H]3CC[C@@H](O)[C@H](OC)C3)[C@H](C)[C@@H](O)CC1=O)[C@H](C)C[C@@H]2OC [Compound 9, Tacrolimus] | micromolar of tens digit | – | – | – | – | – | 49.4 | 49.4 | 49 | 49.4
4 | C[C@@H]1[C@H](O)[C@@H](C)/C=C/C=C/C=C/C=C/C=C/C=C/C=C/[C@H](O[C@@H]2O[C@H](C)[C@@H](O)[C@H](N)[C@@H]2O)C[C@@H]2O[C@](O)(C[C@@H](O)C[C@@H](O)[C@H](O)CC[C@@H](O)C[C@@H](O)CC(=O)O[C@H]1C)C[C@H](O)[C@H]2C(=O)O [Compound 13, Amphotericin B] | unit digits | – | – | – | – | – | 3.7 | 3.7 | 3.72 | 3.7
5 | COc1ccnc(C[S+]([O-])c2nc3ccc(OC(F)F)cc3[nH]2)c1OC (stereo not drawn) [Compound 11, Pantoprazole] | – | – | – | – | – | – | 300 | 300 | 302 | 300
6 | C[C@@H]1Cc2c(Cl)cc(C(=O)N[C@@H](Cc3ccccc3)C(=O)O)c(O)c2C(=O)O1 [Compound 3, Ochratoxin A] | micromolar of tens digit | – | – | – | – | – | 46.1 | 46.1 | 45.7 | 46.1
7 | CO[C@@]12[C@H](COC(N)=O)C3=C(C(=O)C(C)=C(N)C3=O)N1C[C@@H]1N[C@@H]12 [Compound 10, Mitomycin C] | unit digits; also recorded: micromolar of tens digit | – | – | – | – | – | 5.04 | 5.04 | 5.01 | 5.04
8 | C[C@@H](NCCCc1cccc(C(F)(F)F)c1)c1cccc2ccccc12 [Compound 8, Cinacalcet] | micromolar of tens digit | – | – | – | – | – | 17.1 | 17.1 | 17 | 17.1
